Assays:
Format in all cases: in vivo
Echinochloa crus-galli [1] = experiment: Test Example 4: herbicidal effect test by stem and leaf treatment in upland field; conditions: 120 g per 10 ares, sprayed seven days after sowing, upland soil, 14 days after application; for inhibition at 1200 g/ha: Echinochloa crus-galli, read-out: weed inhibition rate
[2] = tested on: Echinochloa crus-galli var. formosensis; experiment: Test Example 1: herbicidal effect test by soil application in paddy rice; conditions: 120 g active ingredient per 10 ares, applied immediately after sowing, flooded pots, 14 days after application; for pest or weed control at 1200 g/ha: Echinochloa crus-galli, soil, 336 h, read-out: weed inhibition rate
Protocol: Wagner pots with an area of […] were filled with paddy soil, followed by addition of water and incorporation of chemical fertilizer (N:P:K = 16:16:16), after which puddling was performed. After that, seeds of Echinochloa crus-galli var. formosensis, broad-leaved weeds ([…] Monochoria vaginalis), and Scirpus juncoides were sown at a depth of 0 cm to 1 cm, 30 seeds each. Immediately after sowing, the pots were flooded and a water depth of approximately 3 cm was maintained. Subsequent management was conducted in a glass greenhouse. Immediately thereafter, an emulsifiable concentrate prepared according to Formulation Example 5 using the compound shown below was diluted with water, and a specified amount of the diluted solution was applied by dropper. The amount of the active ingredient to be applied was equivalent to 120 g per 10 ares.

[3] = tested on: Echinochloa crus-galli var. formosensis; experiment: Test Example 2: herbicidal effect test by application during growth period of paddy rice; conditions: 120 g per 10 ares, applied seven days after sowing, flooded pots, 14 days after application; for inhibition at 1200 g/ha: Echinochloa crus-galli, read-out: weed inhibition rate
Protocol: (§1) The present test was conducted in duplicate for each chemical concentration group, and the weed inhibition rate (%) was determined 14 days after chemical application using the following formula (Math. 1). [formula]
Wagner pots with an area of […] were filled with paddy soil, followed by addition of water and incorporation of chemical fertilizer (N:P:K = 16:16:16), after which puddling was performed. After that, seeds of Echinochloa crus-galli var. formosensis, broad-leaved weeds (Monochoria vaginalis), and Scirpus juncoides were sown at a depth of 0 cm to 1 cm, 30 seeds each. Immediately after sowing, the pots were flooded and a water depth of approximately 3 cm was maintained. Subsequent management was conducted in a glass greenhouse. Seven days after sowing, an emulsifiable concentrate prepared according to Formulation Example 5 using the compound shown below was diluted with water, and a specified amount of the diluted solution was applied by dropper. The amount of the active ingredient to be applied was equivalent to 120 g per 10 ares. The test was conducted in duplicate for each chemical concentration group, and the herbicidal effect was evaluated 14 days after chemical application using the same criteria as in Test Example 1.

Digitaria ciliaris [4] = experiment: Test Example 4: herbicidal effect test by stem and leaf treatment in upland field; conditions: 120 g per 10 ares, sprayed seven days after sowing, upland soil, 14 days after application; for inhibition at 1200 g/ha: Digitaria ciliaris, read-out: weed inhibition rate
Protocol: as §1
(§2) Pots with an area of 36 cm^2 were filled with upland soil (alluvial loam), twenty seeds each of weeds of Digitaria ciliaris, Echinochloa crus-galli, and Amaranthus viridis were uniformly mixed with the top 1 cm layer of soil and the surface was lightly pressed down. Seven days after sowing, an emulsifiable concentrate prepared according to Formulation Example 5 using the compound shown below was diluted with water, and the diluted solution was sprayed onto the soil surface at a rate of 100 liters per 10 ares. The amount of the active ingredient to be applied was equivalent to 120 g per 10 ares. Fourteen days after chemical application, the herbicidal effect was evaluated according to the same criteria as in Test Example 1.

Echinochloa crus-galli [5] = experiment: Test Example 3: herbicidal effect test by soil application in upland field; conditions: 120 g per 10 ares, sprayed one day after sowing, 14 days after application; for inhibition at 1200 g/ha: Echinochloa crus-galli, read-out: weed inhibition rate
Protocol: as §1
as §2, with “crus-galli, Chenopodium album,” for “crus-galli,”, “One day” for “Seven days”

Digitaria ciliaris [6] = experiment: as above; conditions: 120 g per 10 ares, sprayed one day after sowing, 14 days after application; for inhibition at 1200 g/ha: Digitaria ciliaris, read-out: weed inhibition rate
Protocol: as §1
as §2, with “crus-galli, Chenopodium album,” for “crus-galli,”, “One day” for “Seven days”

CC(C)[C@@]12C[C@H](OCc3ccccc3Br)[C@@](C)(C[C@H]1Br)O2 [1-1034, (1R,2S,4S,5R)-5-bromo-2-[(2-bromophenyl)methoxy]-1-methyl-4-isopropyl-7-oxabicyclo[2.2.1]heptane]
≥ 80%: inhibition at 1200 g/ha (Echinochloa crus-galli [1]) | pest or weed control at 1200 g/ha [2] | inhibition at 1200 g/ha [3] | inhibition at 1200 g/ha (Digitaria ciliaris [4]) | inhibition at 1200 g/ha (Echinochloa crus-galli [5]) | inhibition at 1200 g/ha (Digitaria ciliaris [6])

CC(C)[C@@]12C[C@H](OCc3ccccc3I)[C@@](C)(C[C@H]1Br)O2 [1-1037, (1R,2S,4S,5R)-5-bromo-2-[(2-iodophenyl)methoxy]-1-methyl-4-isopropyl-7-oxabicyclo[2.2.1]heptane]
≥ 80%: inhibition at 1200 g/ha (Echinochloa crus-galli [1]) | pest or weed control at 1200 g/ha [2] | inhibition at 1200 g/ha [3] | inhibition at 1200 g/ha (Digitaria ciliaris [4]) | inhibition at 1200 g/ha (Echinochloa crus-galli [5]) | inhibition at 1200 g/ha (Digitaria ciliaris [6])

CC(C)[C@@]12C[C@H](OCc3ccccc3C#N)[C@@](C)(C[C@H]1Br)O2 [1-1043, 2-[[(1R,2S,4S,5R)-5-bromo-1-methyl-4-isopropyl-7-oxabicyclo[2.2.1]heptan-2-yl]oxymethyl]benzonitrile]
≥ 80%: inhibition at 1200 g/ha (Echinochloa crus-galli [1]) | pest or weed control at 1200 g/ha [2] | inhibition at 1200 g/ha [3] | inhibition at 1200 g/ha (Digitaria ciliaris [4]) | inhibition at 1200 g/ha (Echinochloa crus-galli [5]) | inhibition at 1200 g/ha (Digitaria ciliaris [6])

CC(C)[C@@]12C[C@H](OCc3c(F)cccc3F)[C@@](C)(C[C@H]1Br)O2 [1-1052, (1R,28,48,5R)-5-bromo-2-[(2,6-difluorophenyl)methoxy]-1-methyl-4-isopropyl-7-oxabicyclo[2.2.1]heptane]
≥ 80%: weed inhibition rate (Echinochloa crus-galli [1]) | weed inhibition rate [2] | weed inhibition rate [3] | weed inhibition rate (Digitaria ciliaris [4]) | weed inhibition rate (Echinochloa crus-galli [5]) | weed inhibition rate (Digitaria ciliaris [6])

CC(C)[C@@]12C[C@H](OCc3c(Cl)cccc3Cl)[C@@](C)(C[C@H]1Br)O2 [1-1053, (1R,2S,4S,5R)-5-bromo-2-[(2,6-dichlorophenyl)methoxy]-1-methyl-4-isopropyl-7-oxabicyclo[2.2.1]heptane]
≥ 80%: inhibition at 1200 g/ha (Echinochloa crus-galli [1]) | pest or weed control at 1200 g/ha [2] | inhibition at 1200 g/ha [3] | inhibition at 1200 g/ha (Digitaria ciliaris [4]) | inhibition at 1200 g/ha (Echinochloa crus-galli [5]) | inhibition at 1200 g/ha (Digitaria ciliaris [6])

CC(C)[C@@]12C[C@H](OCc3c(F)cccc3Cl)[C@@](C)(C[C@H]1Br)O2 [1-1054, (1R,2S,4S,5R)-5-bromo-2-[(2-chloro-6-fluorophenyl)methoxy]-1-methyl-4-isopropyl-7-oxabicyclo[2.2.1]heptane]
≥ 80%: inhibition at 1200 g/ha (Echinochloa crus-galli [1]) | pest or weed control at 1200 g/ha [2] | inhibition at 1200 g/ha [3] | inhibition at 1200 g/ha (Digitaria ciliaris [4]) | inhibition at 1200 g/ha (Echinochloa crus-galli [5]) | inhibition at 1200 g/ha (Digitaria ciliaris [6])

CC(C)[C@@]12C[C@H](OCc3ccccn3)[C@@](C)(C[C@H]1Br)O2 [1-1059, 2-[[(1R,2S,4S,5R)-5-bromo-1-methyl-4-isopropyl-7-oxabicyclo[2.2.1]heptan-2-yl]oxymethyl]pyridine]
≥ 80%: inhibition at 1200 g/ha (Echinochloa crus-galli [1]) | pest or weed control at 1200 g/ha [2] | inhibition at 1200 g/ha [3] | inhibition at 1200 g/ha (Digitaria ciliaris [4]) | inhibition at 1200 g/ha (Echinochloa crus-galli [5]) | inhibition at 1200 g/ha (Digitaria ciliaris [6])

CC(C)=CCO[C@H]1C[C@@]2(C(C)C)O[C@]1(C)C[C@H]2I [1-1073, (1R,2S,4S,5R)-5-iodo-1-methyl-2-(3-methylbut-2-enoxy)-4-isopropyl-7-oxabicyclo[2.2.1]heptane]
≥ 80%: inhibition at 1200 g/ha (Echinochloa crus-galli [1]) | pest or weed control at 1200 g/ha [2] | inhibition at 1200 g/ha [3] | inhibition at 1200 g/ha (Digitaria ciliaris [4]) | inhibition at 1200 g/ha (Echinochloa crus-galli [5]) | inhibition at 1200 g/ha (Digitaria ciliaris [6])

COc1ccccc1CO[C@H]1C[C@@]2(C(C)C)O[C@]1(C)C[C@H]2I [1-1088, (1R,2S,4S,5R)-5-iodo-2-[(2-methoxyphenyl)methoxy]-1-methyl-4-isopropyl-7-oxabicyclo[2.2.1]heptane]
≥ 80%: inhibition at 1200 g/ha (Echinochloa crus-galli [1]) | pest or weed control at 1200 g/ha [2] | inhibition at 1200 g/ha [3] | inhibition at 1200 g/ha (Digitaria ciliaris [4]) | inhibition at 1200 g/ha (Echinochloa crus-galli [5]) | inhibition at 1200 g/ha (Digitaria ciliaris [6])

CC(C)[C@@]12C[C@H](OCc3ccccc3F)[C@@](C)(C[C@H]1I)O2 [1-1094, (1R,2S,4S,5R)-2-[(2-fluorophenyl)methoxy]-5-iodo-1-methyl-4-isopropyl-7-oxabicyclo[2.2.1]heptane]
≥ 80%: inhibition at 1200 g/ha (Echinochloa crus-galli [1]) | pest or weed control at 1200 g/ha [2] | inhibition at 1200 g/ha [3] | inhibition at 1200 g/ha (Digitaria ciliaris [4]) | inhibition at 1200 g/ha (Echinochloa crus-galli [5]) | inhibition at 1200 g/ha (Digitaria ciliaris [6])

CC(C)[C@@]12C[C@H](OCc3ccccc3Cl)[C@@](C)(C[C@H]1I)O2 [1-1097, (1R,2S,4S,5R)-2-[(2-chlorophenyl)methoxy]-5-iodo-1-methyl-4-isopropyl-7-oxabicyclo[2.2.1]heptane]
≥ 80%: inhibition at 1200 g/ha (Echinochloa crus-galli [1]) | pest or weed control at 1200 g/ha [2] | inhibition at 1200 g/ha [3] | inhibition at 1200 g/ha (Digitaria ciliaris [4]) | inhibition at 1200 g/ha (Echinochloa crus-galli [5]) | inhibition at 1200 g/ha (Digitaria ciliaris [6])

CC(C)[C@@]12C[C@H](OCc3ccccc3C#N)[C@@](C)(C[C@H]1I)O2 [1-1109, 2-[[(1R,2S,4S,5R)-5-iodo-1-methyl-4-isopropyl-7-oxabicyclo[2.2.1]heptan-2-yl]oxymethyl]benzonitrile]
≥ 80%: inhibition at 1200 g/ha (Echinochloa crus-galli [1]) | pest or weed control at 1200 g/ha [2] | inhibition at 1200 g/ha [3] | inhibition at 1200 g/ha (Digitaria ciliaris [4]) | inhibition at 1200 g/ha (Echinochloa crus-galli [5]) | inhibition at 1200 g/ha (Digitaria ciliaris [6])

Cc1cccc(C)c1CO[C@H]1C[C@@]2(C(C)C)O[C@]1(C)C[C@H]2I [1-1118, (1R,2S,4S,5R)-2-[(2,6-dimethylphenyl)methoxy]-5-iodo-1-methyl-4-isopropyl-7-oxabicyclo[2.2.1]heptane]
≥ 80%: inhibition at 1200 g/ha (Echinochloa crus-galli [1]) | pest or weed control at 1200 g/ha [2] | inhibition at 1200 g/ha [3] | inhibition at 1200 g/ha (Digitaria ciliaris [4]) | inhibition at 1200 g/ha (Echinochloa crus-galli [5]) | inhibition at 1200 g/ha (Digitaria ciliaris [6])

CC(C)[C@@]12C[C@H](OCc3c(Cl)cccc3Cl)[C@@](C)(C[C@H]1I)O2 [1-1120, (1R,2S,4S,5R)-2-[(2,6-dichlorophenyl)methoxy]-5-iodo-1-methyl-4-isopropyl-7-oxabicyclo[2.2.1]heptane]
≥ 80%: inhibition at 1200 g/ha (Echinochloa crus-galli [1]) | pest or weed control at 1200 g/ha [2] | inhibition at 1200 g/ha [3] | inhibition at 1200 g/ha (Digitaria ciliaris [4]) | inhibition at 1200 g/ha (Echinochloa crus-galli [5]) | inhibition at 1200 g/ha (Digitaria ciliaris [6])

CC(C)[C@@]12C[C@H](OCc3c(F)cccc3Cl)[C@@](C)(C[C@H]1I)O2 [1-1121, (1R,2S,4S,5R)-2-[(2-chloro-6-fluorophenyl)methoxy]-5-iodo-1-methyl-4-isopropyl-7-oxabicyclo[2.2.1]heptane]
≥ 80%: inhibition at 1200 g/ha (Echinochloa crus-galli [1]) | pest or weed control at 1200 g/ha [2] | inhibition at 1200 g/ha [3] | inhibition at 1200 g/ha (Digitaria ciliaris [4]) | inhibition at 1200 g/ha (Echinochloa crus-galli [5]) | inhibition at 1200 g/ha (Digitaria ciliaris [6])

Cc1cccc(COC2CC3(C(C)C)OC2(C)CC3Br)c1 (stereo not drawn) [1-1344, 5-bromo-1-methyl-2-[(3-methylphenyl)methoxy]-4-isopropyl-7-oxabicyclo[2.2.1]heptane]
≥ 80%: inhibition at 1200 g/ha (Echinochloa crus-galli [1]) | pest or weed control at 1200 g/ha [2] | inhibition at 1200 g/ha [3] | inhibition at 1200 g/ha (Digitaria ciliaris [4]) | inhibition at 1200 g/ha (Echinochloa crus-galli [5]) | inhibition at 1200 g/ha (Digitaria ciliaris [6])

Reference: patent publication EP4707280A1, “1,4-CINEOLE DERIVATIVE AND INTERMEDIATE THEREOF, HERBICIDE CONTAINING SAID DERIVATIVE AS ACTIVE INGREDIENT, METHOD FOR USING HERBICIDE, AND METHOD FOR PREPARING AGROCHEMICAL COMPOSITION” (HOKKO CHEMICAL INDUSTRY CO., LTD., priority 2023, dated 2024)
